According to patent publication US11851440B2, “Modulators of eukaryotic initiation factor 2B, compositions and methods” (Denali Therapeutics Inc., priority 2017, dated 2023):

test system: ISR pathway (ATF4 translation); experiment: ATF4 Nano Luciferase reporter integrated stress response (ISR) assay in H4 ATF4-NLuc cells; settings: H4 ATF4-NLuc (clone 17) cells; compound 30 minutes, then 50 um sodium arsenite for 6 hours; luminescence readout

Row | IC50 [nM] | Compound
1 | 28.5 | O=C(NC12CC(c3nnc([C@H]4C[C@@H](OC(F)(F)F)C4)o3)(C1)C2)c1ccc2cc(F)ccc2n1 [Example 189, 6-fluoro-N-[1-[5-[3-cis-(trifluoromethoxy)cyclobutyl]-1,3,4-oxadiazol-2-yl]-3-bicyclo[1.1.1]pentanyl]quinoline-2-carboxamide]

same assay, conditions: Homo sapiens, H4 ATF4-NLuc (clone 17) cells; compound 30 minutes, then 50 um sodium arsenite for 6 hours; luminescence readout

Row | Compound | IC50 [nM]
2 | O=C(COc1ccc(C(F)(F)F)nc1)NC12CC(n3cnc(-c4ccc(F)c(F)c4)c3)(C1)C2 [Example 161] | 13.4
3 | O=C(COc1ccc(Cl)c(F)c1)NC12CC(n3cnc([C@H]4C[C@@H](OC(F)(F)F)C4)c3)(C1)C2 [Example 61, 2-(4-chloro-3-fluoro-phenoxy)-N-[3-[4-[3-cis-(trifluoromethoxy)cyclobutyl]imidazol-1-yl]-1-bicyclo[1.1.1]pentanyl]acetamide] | 1.9

Second part, the molecule after the results:

Row | IC50 [nM] | Compound
4 | 9.2 | O=C(NC12CC(c3nnc([C@H]4C[C@@H](OC(F)(F)F)C4)o3)(C1)C2)C1CCc2cc(Cl)ccc2O1 (single isomer, unassigned) [Example 157, 6-chloro-N-(3-(5-(3-cis-(trifluoromethoxy)cyclobutyl)-1,3,4-oxadiazol-2-yl)bicyclo[1.1.1]pentan-1-yl)chroman-2-carboxamide]
5 | 13.7 | O=C(COc1ccc(Cl)c(F)c1)NC12CC(c3nnc([C@H]4C[C@@H](OC(F)F)C4)o3)(C1)C2 [Example 51]

same assay, conditions: Homo sapiens, read-out: Activity (IC50), H4 ATF4-NLuc (clone 17) cells; compound 30 minutes, then 50 um sodium arsenite for 6 hours; luminescence readout

Row | Compound | IC50 [nM]
6 | O=C(COc1ccc(Cl)c(F)c1)NC12CC(c3nnc(CCOC(F)(F)F)o3)(C1)C2 [Example 55] | < 1000
7 | O=C(CO[C@H]1C[C@H](OC(F)(F)F)C1)NC12CC(n3cnc(-c4ccc(Cl)cc4)c3)(C1)C2 [Example 141] | < 1000
8 | O=C(CO[C@H]1C[C@@H](OC(F)(F)F)C1)NC12CC(n3cnc(-c4cccc(F)c4)c3)(C1)C2 [Example 137] | < 1000
9 | O=C(COc1ccc(Cl)c(F)c1)NC12CC(c3nc(C4CCC4)co3)(C1)C2 [Example 27, 2-(4-chloro-3-fluoro-phenoxy)-N-[1-(4-cyclobutyloxazol-2-yl)-3-bicyclo[1.1.1]pentanyl]acetamide] | < 1000
10 | O=C(COC1CC(OC(F)(F)F)C1)NC12CC(c3nnc(-c4cnn(CC(F)(F)F)c4)o3)(C1)C2 (stereo not drawn) [Example 118, N-[3-[5-[1-(2,2,2-trifluoroethyl)pyrazol-4-yl]-1,3,4-oxadiazol-2-yl]-1-bicyclo[1.1.1]pentanyl]-2-[3-cis-(trifluoromethoxy)cyclobutoxy]acetamide] | 1000 to 10000
11 | O=C(CO[C@H]1C[C@@H](OC(F)(F)F)C1)NC12CC(n3cnc(-c4ccc(F)cc4F)c3)(C1)C2 [Example 135] | < 1000
12 | C[C@H]1C[C@@H]1c1nnc(C23CC(NC(=O)COc4ccc(Cl)c(F)c4)(C2)C3)o1 (relative stereo) [Example 9, 2-(4-chloro-3-fluoro-phenoxy)-N-[1-[5-[(trans)-2-methylcyclopropyl]-1,3,4-oxadiazol-2-yl]-3-bicyclo[1.1.1]pentanyl]acetamide] | < 1000
13 | O=C(CO[C@H]1C[C@@H](OC(F)(F)F)C1)NC12CC(n3cnc(-c4ccc(C(F)(F)F)c(F)c4)c3)(C1)C2 [Example 149] | < 1000
14 | O=C(CO[C@H]1C[C@@H](OC(F)(F)F)C1)NC12CC(c3cnn(-c4ccccc4)c3)(C1)C2 [Example 275] | < 1000
15 | O=C(COc1ccc(C(F)(F)F)nc1)NC12CC(n3cnc(-c4ccc(F)c(F)c4)c3)(C1)C2 [Example 161] | < 1000
16 | N#C[C@H]1C[C@H](n2cc(C34CC(NC(=O)COc5ccc(Cl)c(F)c5)(C3)C4)nn2)C1 [Example 34, 2-(4-chloro-3-fluorophenoxy)-N-(3-(1-((trans)-3-cyanocyclobutyl)-1H-1,2,3-triazol-4-yl)bicyclo[1.1.1]pentan-1-yl)acetamide] | < 1000
17 | O=C(COc1ccc(Cl)c(F)c1)NC12CC(c3nnc(CN4CC(F)(F)C4)o3)(C1)C2 [Example 129, 2-(4-chloro-3-fluoro-phenoxy)-N-[3-[5-[(3,3-difluoroazetidin-1-yl)methyl]-1,3,4-oxadiazol-2-yl]-1-bicyclo[1.1.1]pentanyl]acetamide] | 1000 to 10000
18 | O=C(CO[C@H]1C[C@@H](OC(F)(F)F)C1)NC12CC(n3cnc(-c4ccc(C(F)(F)F)cc4CO)c3)(C1)C2 [Example 272] | < 1000
19 | O=C(COc1ccc(Cl)c(F)c1)NC12CC(n3cnc([C@H]4C[C@@H](OC(F)(F)F)C4)c3)(C1)C2 [Example 61, 2-(4-chloro-3-fluoro-phenoxy)-N-[3-[4-[3-cis-(trifluoromethoxy)cyclobutyl]imidazol-1-yl]-1-bicyclo[1.1.1]pentanyl]acetamide] | < 1000
20 | O=C(COc1ccc(Cl)c(F)c1)NC12CC(N3C[C@H](C4CC(OC(F)(F)F)C4)OC3=O)(C1)C2 (single isomer, unassigned) [Example 206] | < 1000
21 | CC(C)(C)OC(=O)N1CC(c2nnc(C34CC(NC(=O)COc5ccc(Cl)c(F)c5)(C3)C4)o2)C1 [Example 13, tert-Butyl 3-[5-[3-[[2-(4-chloro-3-fluoro-phenoxy)acetyl]amino]-1-bicyclo[1.1.1]pentanyl]-1,3,4-oxadiazol-2-yl]azetidine-1-carboxylate] | < 1000
22 | C[C@H]1C[C@@H]1c1nnc(C23CC(NC(=O)COc4ccc(Cl)c(F)c4)(C2)C3)o1 (single isomer, unassigned) [Example 112, 2-(4-chloro-3-fluoro-phenoxy)-N-[1-[5-[2-methylcyclopropyl]-1,3,4-oxadiazol-2-yl]-3-bicyclo[1.1.1]pentanyl]acetamide] | < 1000
23 | O=C(COc1ccc(Cl)c(F)c1)NC12CC(C3CN(CC4CCC4)C(=O)O3)(C1)C2 (centres unmarked) [Example 220] | < 1000
24 | O=C(CO[C@H]1C[C@@H](OC(F)(F)F)C1)NC12CC(n3cnc(C4CC(OC(F)(F)F)C4)c3)(C1)C2 (some centres unmarked) [Example 52] | < 1000

Results, then the molecule that gave them:

Row | IC50 [nM] | Compound
25 | < 1000 | O=C(NC12CC(c3nnc([C@H]4C[C@@H](OC(F)(F)F)C4)o3)(C1)C2)C1Cc2cc(Cl)ccc2O1 (stereo partly drawn) [Example 76, 5-chloro-N-[3-[5-[3-cis-(trifluoromethoxy)cyclobutyl]-1,3,4-oxadiazol-2-yl]-1-bicyclo[1.1.1]pentanyl]-2,3-dihydrobenzofuran-2-carboxamide]
26 | < 1000 | O=C(NC12CC(c3nnc([C@H]4C[C@@H](OC(F)(F)F)C4)o3)(C1)C2)C1CCc2cc(Cl)ccc2O1 (single isomer, unassigned) [Example 157, 6-chloro-N-(3-(5-(3-cis-(trifluoromethoxy)cyclobutyl)-1,3,4-oxadiazol-2-yl)bicyclo[1.1.1]pentan-1-yl)chroman-2-carboxamide]
27 | < 1000 | O=C(NC12CC(c3nnc([C@H]4C[C@@H](OC(F)(F)F)C4)o3)(C1)C2)c1cnc2cc(Cl)ccc2c1 [Example 168]
28 | < 1000 | O=C(COc1cccc(F)c1)NC12CC(c3nnc([C@H]4C[C@@H](OC(F)(F)F)C4)o3)(C1)C2 [Example 105, 2-(3-fluorophenoxy)-N-[3-[5-[3-cis-(trifluoromethoxy)cyclobutyl]-1,3,4-oxadiazol-2-yl]-1-bicyclo[1.1.1]pentanyl]acetamide]
29 | < 1000 | O=C(COc1ccc(Cl)c(F)c1)NC12CC(c3cn([C@H]4C[C@H](OC(F)(F)F)C4)nn3)(C1)C2 [Example 64, 2-(4-chloro-3-fluoro-phenoxy)-N-[3-[1-[3-trans-(trifluoromethoxy)cyclobutyl]triazol-4-yl]-1-bicyclo[1.1.1]pentanyl]acetamide]
30 | < 1000 | O=C(NC12CC(c3nnc([C@H]4C[C@@H](OC(F)(F)F)C4)o3)(C1)C2)c1cn2cc(Cl)ccc2n1 [Example 103, 6-chloro-N-[3-[5-[3-cis-(trifluoromethoxy)cyclobutyl]-1,3,4-oxadiazol-2-yl]-1-bicyclo[1.1.1]pentanyl]imidazo[1,2-a]pyridine-2-carboxamide]
31 | < 1000 | N#CC1CC(c2nnc(C34CC(NC(=O)COc5ccc(Cl)c(F)c5)(C3)C4)o2)C1 (centres unmarked) [Example 29, 2-(4-chloro-3-fluoro-phenoxy)-N-[1-[5-(3-cyanocyclobutyl)-1,3,4-oxadiazol-2-yl]-3-bicyclo[1.1.1]pentanyl]acetamide]
32 | < 1000 | O=C(CO[C@H]1C[C@@H](OC(F)(F)F)C1)NC12CC(c3nnc(-c4ccc(Cl)cn4)s3)(C1)C2 [Example 241]
33 | 1000 to 10000 | O=C(COc1ccc(Cl)c(F)c1)NC12CC(c3nnc([C@H]4C[C@H]4C(F)F)o3)(C1)C2 (single isomer, unassigned) [Example 85, 2-(4-chloro-3-fluoro-phenoxy)-N-[3-[5-[2-cis-(difluoromethyl)cyclopropyl]-1,3,4-oxadiazol-2-yl]-1-bicyclo[1.1.1]pentanyl]acetamide]
34 | < 1000 | O=C(NC12CC(c3nnc([C@H]4C[C@@H](OC(F)(F)F)C4)o3)(C1)C2)OC[C@H]1C[C@@H](OC(F)(F)F)C1 [Example 88, [3-cis-(trifluoromethoxy)cyclobutyl]methyl N-[3-[5-[3-cis-(trifluoromethoxy)cyclobutyl]-1,3,4-oxadiazol-2-yl]-1-bicyclo[1.1.1]pentanyl]carbamate]
35 | < 1000 | CC(C)(Oc1ccc(Cl)cc1)C(=O)NC12CC(c3nnc([C@H]4C[C@@H](OC(F)(F)F)C4)o3)(C1)C2 [Example 154]
36 | < 1000 | O=C(NC12CC(c3nnc([C@H]4C[C@H](OC(F)(F)F)C4)o3)(C1)C2)OCc1ccc(Cl)cc1 [Example 111, (4-chlorophenyl)methyl-N-[3-[5-[3-trans-(trifluoromethoxy)cyclobutyl]-1,3,4-oxadiazol-2-yl]-1-bicyclo[1.1.1]pentanyl]carbamate]
37 | < 1000 | O=C(NC12CC(c3nnc([C@H]4C[C@@H](OC(F)(F)F)C4)o3)(C1)C2)c1nc2cc(Br)ccc2o1 [Example 193]
38 | < 1000 | O=C(NC12CC(c3nnc([C@H]4C[C@@H](OC(F)(F)F)C4)o3)(C1)C2)c1cc2ccc(Cl)cc2nn1 [Example 183]
39 | < 1000 | O=C(CO[C@H]1C[C@@H](OC(F)(F)F)C1)NC12CC(c3ncc(-c4ccc(Cl)c(F)c4)o3)(C1)C2 [Example 227]
40 | < 1000 | O=C(COc1ccc(Cl)c(F)c1)NC12CC(c3nnc([C@H]4C[C@@H](OC(F)F)C4)o3)(C1)C2 [Example 51]

same assay, conditions: read-out: Activity (IC50); H4 ATF4-NLuc (clone 17) cells; compound 30 minutes, then 50 um sodium arsenite for 6 hours; luminescence readout

Row | Compound | IC50 [nM]
41 | O=C(COc1ccc(Cl)c(F)c1)NC12CC(C3CN(CC4CCC4)C(=O)O3)(C1)C2 (centres unmarked) [Example 60] | < 1000
42 | O=C(COc1ccc(Cl)c(F)c1)NC12CC(N3C[C@@H](C4CC(OC(F)(F)F)C4)OC3=O)(C1)C2 (single isomer, unassigned) [Example 209] | < 1000

More lines, now with the values ahead:

Row | IC50 [nM] | Compound
43 | < 1000 | O=C(NC12CC(c3nnc([C@H]4C[C@@H](OC(F)(F)F)C4)o3)(C1)C2)c1ccc2cc(F)ccc2n1 [Example 189, 6-fluoro-N-[1-[5-[3-cis-(trifluoromethoxy)cyclobutyl]-1,3,4-oxadiazol-2-yl]-3-bicyclo[1.1.1]pentanyl]quinoline-2-carboxamide]
44 | < 1000 | O=C(COC[C@H]1C[C@@H](OC(F)(F)F)C1)NC12CC(c3nnc([C@H]4C[C@@H](OC(F)(F)F)C4)o3)(C1)C2 [Example 226]
